Measured values as given in US8722088B2, “Pharmaceutical compositions and methods for the treatment of prostate cancer” (Ferring International Center S.A., priority 2009, dated 2014).
Where a SMILES comes first, the peptide text is derived from it. [ ]: non-standard residue; d: D form. The star is where a group is joined. dPhe(4-NHCONH2) = NC(=O)Nc1ccc(C[C@@H](N)C(=O)O)cc1; Dihydroorotyl(S) = O=C1C[C@@H](C(=O)*)NC(=O)N1; dPhe(4-Cl) = N[C@H](Cc1ccc(Cl)cc1)C(=O)O; Phe(4-NH2) = Nc1ccc(C[C@H](N)C(=O)O)cc1; d2Nal = N[C@H](Cc1ccc2ccccc2c1)C(=O)O; Lys(iPr) = CC(C)NCCCC[C@H](N)C(=O)O; d3Pal = N[C@H](Cc1cccnc1)C(=O)O

Experiments:
PSA = test: Clinical trial CS18: PSA change from baseline; type: in vivo, human
Method: PSA is a commonly used marker in the diagnosis of prostate cancer and has more recently also been used to monitor response to treatment as well as disease recurrence and progression (Fleming et al. (2006) Nat. Clin. Pract. Oncol. 3: 658-68; Lilja, et al. (2008) Nat. Rev. Cancer 8: 268-78). In general, higher levels of PSA are associated with more severe forms of prostate cancer, with metastatic stage prostate cancer being associated with the highest level of PSA (e.g., >50 ng/mL). Accordingly, rising PSA levels in patients undergoing prostate cancer treatment are associated with incomplete or failed efficacy of the treatment. Here, there were further reductions in PSA after Month 1 and the median reductions were sustained throughout the study period (median reductions of 96-97%).

[1] = human, in vivo
Excerpt: At the data cut-off date (i.e., seven months after commence of the clinical trial), 133 patients with prostate cancer were exposed to degarelix in the Phase 2, three-month dosing regimen clinical program (CS18).

serum testosterone = test: Previous studies, population PK/PD: proportion of patients with serum testosterone ≦0.5 ng/mL versus plasma degarelix concentration; type: in vivo, human
Excerpt: Throughout the ongoing degarelix development program, population pharmacokinetic/pharmacodynamic (PK/PD) modeling and simulations have been employed to get a better understanding of the PK and PD data, and the relationship between these and other parameters. […] Because of the variability in the population, it was considered that this median plasma concentration might not be sufficient to maintain long-term testosterone suppression in approximately 95% of the patients. It was therefore proposed that the dose administered should produce mean serum trough degarelix levels of >9 ng/ml or higher in the Phase 3 studies for the one-month dosing regimen program.
The relationship between proportion of patients castrated [(T)≦0.5 ng/mL] and degarelix concentration after day 28 is illustrated in FIG. 1. FIG. 1 is based on data from 1473 prostate cancer patients in clinical studies by dividing PK levels into intervals 0-1, 1-2, 2-3 ng/mL and so forth and plotting observed proportions against PK interval midpoints together with a smoothing line with 95% confidence interval (CI). Based on this information, approximately 97% of the patients are castrated provided that degarelix concentrations stay above a threshold value of 9-10 ng/mL.

injection site reactions of mild intensity [1]: 11% | injection site reactions of moderate intensity [1]: 11% | patients reporting severe injection site reactions [1]: 5%
SMILES: CC(=O)N[C@H](Cc1ccc2ccccc2c1)C(=O)N[C@H](Cc1ccc(Cl)cc1)C(=O)N[C@H](Cc1cccnc1)C(=O)N[C@@H](CO)C(=O)N[C@@H](Cc1ccc(NC(=O)[C@@H]2CC(=O)NC(=O)N2)cc1)C(=O)N[C@H](Cc1ccc(NC(N)=O)cc1)C(=O)N[C@@H](CC(C)C)C(=O)N[C@@H](CCCCNC(C)C)C(=O)N1CCC[C@H]1C(=O)N[C@H](C)C(N)=O [Degarelix, D-Alaninamide, N-acetyl-3-(2-naphthalenyl)-D-alanyl-4-chloro-D-phenylalanyl-3-(3-pyridinyl)-D-alanyl-L-seryl-4-[[[(4S)-hexahydro-2,6-dioxo-4-pyrimidinyl]carbonyl]amino]-L-phenylalanyl-4-[(aminocarbonyl)amino]-D-phenylalanyl-L leucyl-N6-(1-methylethyl)-L-lysyl-L-prolyl] (Ac-[d2Nal][dPhe(4-Cl)][d3Pal]S[Phe(4-NH2)](Dihydroorotyl(S))[dPhe(4-NHCONH2)]L[Lys(iPr)]P[dA]-NH2)
PSA, Median % Change from Baseline (PSA; 360/60 mg, Day 28): −83.8% | PSA, Median % Change from Baseline (PSA; 360/60 mg, Day 56): −93.8% | PSA, Median % Change from Baseline (PSA; 360/60 mg, Day 84): −95.0% | PSA, Median % Change from Baseline (PSA; 360/60 mg, Day 112): −95.5% | PSA, Median % Change from Baseline (PSA; 360/60 mg, Day 140): −96.2% | PSA, Median % Change from Baseline (PSA; 360/60 mg, Day 168): −96.8% | PSA, Median % Change from Baseline (PSA; 360/60 mg, Day 196): −95.9% | PSA, Median % Change from Baseline (PSA; 360/60 mg, Day 224): −96.4% | PSA, Median % Change from Baseline (PSA; 360/60 mg, Day 252): −97.0% | PSA, Median % Change from Baseline (PSA; 360/60 mg, Day 280): −97.0% | PSA, Median % Change from Baseline (PSA; 360/60 mg, Day 308): −97.3% | PSA, Median % Change from Baseline (PSA; 360/60 mg, Day 336): −97.5% | PSA, Median % Change from Baseline (PSA; 360/60 mg, Day 364): −96.9% | PSA, Median % Change from Baseline (PSA; 360/60 mg, Last visit): −96.9% | PSA, Median % Change from Baseline (PSA; 480/60 mg, Day 28): −78.9% | PSA, Median % Change from Baseline (PSA; 480/60 mg, Day 56): −90.9% | PSA, Median % Change from Baseline (PSA; 480/60 mg, Day 84): −93.4% | PSA, Median % Change from Baseline (PSA; 480/60 mg, Day 112): −95.3% | PSA, Median % Change from Baseline (PSA; 480/60 mg, Day 140): −95.5% | PSA, Median % Change from Baseline (PSA; 480/60 mg, Day 168): −96.5% | PSA, Median % Change from Baseline (PSA; 480/60 mg, Day 196): −96.2% | PSA, Median % Change from Baseline (PSA; 480/60 mg, Day 224): −96.6% | PSA, Median % Change from Baseline (PSA; 480/60 mg, Day 252): −96.9% | PSA, Median % Change from Baseline (PSA; 480/60 mg, Day 280): −96.5% | PSA, Median % Change from Baseline (PSA; 480/60 mg, Day 308): −97.0% | PSA, Median % Change from Baseline (PSA; 480/60 mg, Day 336): −97.4% | PSA, Median % Change from Baseline (PSA; 480/60 mg, Day 364): −97.1% | PSA, Median % Change from Baseline (PSA; 480/60 mg, Last visit): −96.5% | median reductions in PSA sustained throughout the study period (PSA; CS18, after Month 1): 96-97% | PSA, Median % Change from Baseline (PSA; Total (both arms), Day 28): −81.2% | PSA, Median % Change from Baseline (PSA; Total (both arms), Day 56): −92.9% | PSA, Median % Change from Baseline (PSA; Total (both arms), Day 84): −94.5% | PSA, Median % Change from Baseline (PSA; Total (both arms), Day 112): −95.4% | PSA, Median % Change from Baseline (PSA; Total (both arms), Day 140): −95.9% | PSA, Median % Change from Baseline (PSA; Total (both arms), Day 168): −96.6% | PSA, Median % Change from Baseline (PSA; Total (both arms), Day 196): −96.2% | PSA, Median % Change from Baseline (PSA; Total (both arms), Day 224): −96.5% | PSA, Median % Change from Baseline (PSA; Total (both arms), Day 252): −96.9% | PSA, Median % Change from Baseline (PSA; Total (both arms), Day 280): −97.0% | PSA, Median % Change from Baseline (PSA; Total (both arms), Day 308): −97.2% | PSA, Median % Change from Baseline (PSA; Total (both arms), Day 336): −97.4% | PSA, Median % Change from Baseline (PSA; Total (both arms), Day 364): −96.9% | PSA, Median % Change from Baseline (PSA; Total (both arms), Last visit): −96.8% | hepatotoxicity: impairment of liver function [1]: do not show any clinically significant impairment of liver function | immediate anaphylactic reactions [1]: no immediate anaphylactic reactions reported | incidence of any injection site reaction [1]: 26% | patients achieving serum testosterone ≦0.5 ng/mL (serum testosterone; Day 28, median trough plasma degarelix 7.34 ng/mL): 96% | patients having testosterone ≦0.5 ng/mL (serum testosterone; Day 84, median plasma degarelix 4.54 ng/mL): 83%
